Results from patent US11234982B2, “Methods for treating ocular surface pain” (NOVARTIS AG, priority 2019, dated 2022).
Entries after “also recorded” stand apart in the source; their conditions may differ.

What was measured:
Assay type in all cases: in vivo, human
[1] = tested on: patients undergoing photorefractive keratectomy (PRK) surgery; assay: PRK study: ocular safety assessments and vital signs
Experimental: (§1) The study was a proof of concept, double-masked, randomized, vehicle-controlled study of compound I administered as eye drops in addition to standard of care treatment in patients after PRK surgery. PRK surgery was performed as an outpatient procedure under topical anesthesia with removal of the corneal epithelium to expose the stroma for the laser ablation. Compound I dosing was as single eye drop of 2.5% (25 mg/ml, 0.925 mg/drop), administered four times daily (every six hours) in one eye from immediate post-op (time 0) to last dose at 72 hours.
Adverse events and serious adverse events included an assessment of both systemic and ocular assessments. Systemic safety assessments included regular assessments of height and weight, vital signs, reporting medication errors including misuse/abuse, pregnancy reporting and early phase safety monitoring. The misuse/abuse, pregnancy reporting and early phase safety monitoring were not assessed for the study. Ocular safety assessments included the following: • Best-corrected visual acuity (BCVA) and uncorrected visual acuity (UCVA): Was measured at each visit using an ETDRS visual acuity chart at 4 meters (13 feet) or 1 meter (for patients that cannot read the 4 meter chart). The BCVA scoring was done based on the number of correctly read letters plus 30. If visual acuity was so poor that the patient could not read any of the largest letters at 1 meter, count fingers and hand movement vision and light perception was tested. • Intraocular Pressure (TOP): IOP measurements were conducted with applanation tonometry or Tonopen. • Dilated fundus exam: The dilated fundus examination included ophthalmoscopic assessments of the vitreous, retina/macula/choroid, and optic nerve. Evaluations for retinal tear/detachment, retinal hemorrhage, vitreous hemorrhage density, vitreous haze grading and abnormal findings were done and scored according to grading criteria. • Ocular hyperemia: Conjunctival redness of the bulbar conjunctiva in each eye at the slit lamp according to the McMonnies redness scale was graded. […] By adjusting the calibrated slit beam width and height, the maximum horizontal (wound width) and vertical dimensions (wound height) of the surgical epithelial wound was estimated. The evaluation was performed until wound closure and report of wound size as 0 horizontal and 0 vertical dimensions. • Slit-lamp biomicroscopy: Ocular signs (eyelids/conjunctiva, cornea, lens, and iris/anterior chamber) was assessed in both eyes by slit lamp biomicroscopy according to the grading criteria. • Blink rate: A blink was defined as a bilateral paroxysmal closure of the eyelids (duration<1 second) in the absence of a provoking external stimulus. Each blink assessment lasted for 2 min (or as close to 2 minutes as possible with minimum time 1 minute) and the obtained blink rate was averaged to calculate blink rate in blinks/min. • Tear production (Schirmer's test without anesthesia): The test was performed without anesthetic in both eyes simultaneously. Tear secretion was measured in millimeters of the length of strip wetted by tears. […] The strip was wetted with 1 drop of sterile saline and flicked to remove excess saline. The patient blinked several times to ensure dispersion of the dye throughout the tear film prior to grading on a scale of 0-3 (0=Normal, No staining; 1=Mild, Superficial stippling micropunctate staining; 2=Moderate, Macropunctate staining with some coalescent areas and 3=Severe, Numerous coalescent macropunctate areas and/or patches) for each of 5 zones (central plus 4 quadrants).

[2] = tested on: healthy volunteers; assay: Hand immersion test at 49° C. during MAD part; details: water at 49° C.
Experimental: Safety assessments: Safety assessments consisted of collecting all adverse events (AEs), serious adverse events (SAEs), including systemic and ocular adverse events, along with their severity and relationship to study drug. Systemic safety assessments included regular monitoring of hematology, blood chemistry and urinalysis performed at study center and regular assessments of physical examination, vital signs (systolic and diastolic blood pressure, pulse rate, and body temperature), ECG, pregnancy and assessments of fertility and hand immersion test at 49° C. during MAD part. Ocular safety assessments included early treatment diabetic retinopathy study (ETDRS) visual acuity, intraocular pressure, slit-lamp biomicroscopy, corneal staining and dilated fundus exam.
For the hand immersion test, all subjects in the treatment cohorts withdrew their hand from water at 49° C. at a time interval between 0 to ≤50 secs.

[3] = tested on: postoperative ocular pain in patients undergoing photorefractive keratectomy (PRK) surgery; assay: PRK study: visual analog scale (VAS) pain assessment
Experimental: as §1
The study consisted of 2 treatment periods using a crossover design. Patients underwent PRK surgery on 2 separate occasions (periods), one eye at a time. Patients were randomized to receive either compound 1 or vehicle following procedure 1 and the alternate following procedure 2.
Forty patients were randomized in a 1:1 ratio to two sequences: compound I during period 1, followed by vehicle in period 2, or vehicle during period 1 followed by compound I during period 2. Each patient was administered one drop four times daily for 72 hours following PRK surgery on their study eye (Day 1, Periods 1 and 2). The initial study eye was the non-dominant eye as established at screening and in agreement of the patient and the investigator. The patients returned for follow-up visits on Days 2, 3, 4 and 8 of Period 1 after surgery in the first eye, with optional daily visits to follow the patient until wound healing was complete. The second eye surgery was not performed if any complications were noticed.
Patient subjective experience of pain was recorded using VAS, a numeric assessment of pain between 0 and 100, with 0 representing no pain, and 100 representing worst imaginable pain. […] Since it was important clinically to both decrease the maximum pain as well as the overall pain that the patient experiences during the immediate postoperative period, the two periods of 6 hours and up to 12 hours postoperatively, were evaluated as primary endpoints. All evaluable VAS data was collected using an ePRO, which was an electronic device (cell phone with software application), on which patients marked their pain levels at the appropriate time points.
Rescue oral analgesics: It is not ethical to refuse pain control medication to patients postoperatively as part of a clinical trial. […] Because the use of oral rescue medication may be a potential confounder of the pain VAS evaluation, three approaches were used when analyzing pain VAS scores to account for the influence of pain meds (assuming 4 hours of rescue medication effect): (1) any recorded VAS score within 4 hours after use of rescue medication was considered missing; (2) all the recorded VAS scores was used; and (3) any recorded VAS scores within 4 hours after rescue medication use was imputed by the record taken prior to the rescue medication.

[4] = across the scheduled time points
[5] = 2.5% four times daily after PRK
[6] = 2.5% four times daily after PRK, VAS 0-100
[7] = 2.5% four times daily after PRK, VAS 0-100, ORM-adjusted, N = 30

With `CC(C)c1nc2cc(O)ccc2c(=O)n1-c1ccc(C#N)cc1` [Compound I, 4-(7-hydroxy-2-isopropyl-4-oxo-4H-quinazolin-3-yl)-benzonitrile] the “Ocular hyperemia (McMonnies scale) grade 4, compound I vs Vehicle treated eyes” value ([1]; Day 2 postoperatively (24 hours after PRK surgery)) was “less grade 4 hyperemia (all quadrants); also recorded: Fewer compound I-treated eyes showed severe conjunctival hyperemia”, the “Ocular hyperemia (McMonnies scale) grade 3, compound I vs Vehicle treated eyes” value ([1]; Day 3 (48 hours post-operative)) was “less grade 3 hyperemia” and the Dilated fundus exam [1, 4] was “No abnormal findings”. For the same compound, the “Slit-lamp biomicroscopy: aqueous flare and inflammatory cell grade, iris/anterior chamber, lens” value [1, 4] was “No abnormalities were observed”, the “Changes in BCVA, IOP, slit-lamp biomicroscopy, dilated eye exam, blink rate, tear production, corneal staining, vital signs compared to Vehicle” value ([1]; after compound I administration) was “no clinically relevant changes” and the “Vital sign parameters (blood pressures, pulse rate, body temperature)” value ([1]; all patients during the study) was “within the normal range”. The “Increase in mean IOP values compared to Baseline” value ([1]; at the end of study) was < 5 mmHg, the “Corneal staining, compound I versus Vehicle” value ([1]; baseline, Day 8, EOS visit) was “No clinical differences were observed” and the “Best-corrected visual acuity (BCVA) and uncorrected visual acuity (UCVA), compound I vs Vehicle-treated eyes” value ([1]; throughout the study) was “did not result in any trend or obvious difference”. The “Blink rate, compound I vs Vehicle treatment” value ([1]; throughout the study) was “no trend across the scheduled time points or obvious differences”, the “Intraocular pressure, compound I vs Vehicle-treated eyes” value ([1]; throughout the study) was “No trend across the scheduled time points or obvious differences” and the “Change in hand immersion time, compound I vs vehicle” value ([2]; MAD part) was “no meaningful change in immersion time”. For the same compound, the “Temperature sensitivity of the subjects” value ([2]; MAD part) was “does not alter temperature sensitivity”, the “Longest hand immersion time of any subject” value ([2]; all subjects in the treatment cohorts) was ≤ 22 s and the “VAS 0-12 hours post-operatively: % Diff compound I vs. Vehicle” value [3, 5] was −22%. For the same compound, the “VAS at 6 hours post-operatively: % Diff compound I vs. Vehicle” value [3, 5] was −25%, the “VAS 0-12 hours post-operatively: Diff (compound I-Vehicle) of model based means” value [3, 6] was −8.56 and the “VAS at 6 hours post-operatively: Diff (compound I-Vehicle) of model based means” value [3, 6] was −11.1. The “Model estimated mean VAS pain severity score 0-12 hours post-operatively” value [3, 7] was 30.90, the “Model estimated mean VAS pain severity score at 6-hours post-operatively” value [3, 7] was 34.63 and the “Mean change in VAS score one-half hour after instillation of eye drop” value (“Mean change in VAS score one-half hour” below) ([3]; 6.5 hours vs 6 hours post-operative) was −3.1. The “Mean change in VAS score one-half hour” value ([3]; 18.5 hours vs 18 hours post-operative) was 2.8, the “Mean change in VAS score one-half hour” value ([3]; 24.5 hours vs 24 hours post-operative) was 1.3 and the “VAS pain severity scores vs Vehicle up to 36 hours after surgery” value ([3]; all scheduled time points) was “lower for compound I than Vehicle at all scheduled time points up to and including 36 hours after surgery”. For the same compound, the “Difference between compound I and Vehicle VAS scores from 36 to 72 hours after PRK surgery” value ([3]; no statistically significant difference at p 0.10) was “only marginally different” and the “VAS pain severity scores vs Vehicle during the first 18 hours after surgery” value ([3]; p-value threshold 0.10, 6 out of the 7 time points, starting with hour 1) was “statistically significantly lower VAS pain severity scores”.
